The values that follow come from patent publication US12440479B2, “Prevention or treatment of chronic organ injury” (GEORG-AUGUST-UNIVERSITAET GOETTINGEN, STIFTUNG …, priority 2018, dated 2025).

One series relates to UUO-challenged kidneys. The series can be described thus: Unilateral ureteral obstruction (UUO): tubular injury and interstitial fibrosis (histology, immunostaining). The class given is in vivo, mice. Conditions: UUO; for tubular injury and tubulointerstitial fibrosis: VMO 12.5 mg/kg intraperitoneally or FK506 0.2 mg/kg orally per day; for effect of FK506 on ALK3 expression or reno-protection: VMO added to FK506.

In another series the test system is FKBP12, YY1, ARNT. Nature of the series: In vivo-morpholino knockdown: intrarenal protein levels (immunostaining, immunoblotting). The note with it: UUO mice, VMO 12.5 mg/kg intraperitoneally, vs control-VMO. The method, then: Mice were injected intraperitoneally with 12.5 mg/kg body weight in vivo-morpholinos (Gene Tools, Philomath, USA) in saline at a final volume of 100 μL every other day starting two days prior of surgery (114), sequence alignments were performed using NCBI Nucleotide Blast and are listed in Tables 3-5 (157). A control in vivo-morpholino that targets a human β-globin intron mutation was used as standard control (116).
(§1) For immunofluorescent staining, primary antibodies against ARNT (5537S, Cell Signaling, Danvers, USA), Hif1α (H6535, Sigma, St. Louis, USA), Hif2α (ab20654, Abcam Biochemicals, Cambridge, UK), phosphorylated Smad1/5/8 (pSmad1/5/8, sc-12353, Santa Cruz Biotechnology, Dallas, USA), CD45 (550539, BD Biosciences, Franklin Lakes, USA), Collagen-1 (ab34710, Abcam Biochemicals, Cambridge, UK), α-smooth muscle actin (aSMA, A5228, Sigma, St. Louis, USA), FKBP12 (ab2918, Abcam Biochemicals, Cambridge, UK) and YY1 (ab12132, Abcam Biochemicals, Cambridge, UK) were used, secondary antibodies were labeled with Alexa Fluor 488 or 568 (Life Technologies, Carlsbad, USA). Renal basement membranes were stained with antibodies against Collagen-4 (1340-30, SouthernBiotech, Birmingham, USA), cardiac cell membranes with antibodies against WGA (W11261, Life Technologies, Carlsbad, USA). Nuclear staining was performed using 4′,6-diamidino-2-phenylindole (DAPI, Vector Laboratories, Burlingame, USA). Relative areas positive for Collagen-1, aSMA, tubular nuclei positive for ARNT and pSmad1/5/8 were quantified in 10 high power fields per section at 400× magnification.
Tissue and cells were homogenized in NP40 lysis buffer (Life technologies, Carlsbad, USA) supplemented with protease inhibitor cocktail (Roche, Basel, Switzerland). […] Luminescence was detected by using chemiluminescent substrate (Cell Signaling, Danvers, USA) on a ChemiDoc XRS system (Bio-Rad, Hercules, USA). […]
In general terms: A western blot detects proteins with antibodies after separation by electrophoresis.

For series [1], the system named is intrarenal ARNT/ALK3 signaling. Nature of the series: UUO kidneys: ARNT/ALK3 expression and pSmad1/5/8 (qRT-PCR, immunoblotting, immunostaining). The format is in vivo, mice. The note with it: for intrarenal ARNT, ALK3 and nuclear pSmad1/5/8 immunostaining: UUO, VMO 12.5 mg/kg intraperitoneally or FK506 0.2 mg/kg orally per day. As to the method:
Eight to twelve weeks-old C57/6, yGTcre−;Yy1fl/fl and yGTcre+;Yy1fl/fl mice were anesthetized with isoflurane inhalation (2-3%), analgesia was performed by subcutaneous injection of 0.1 mg/kg body weight per day Buprenorphine. The ureter was separated from the surrounding tissues and two ligatures were placed about 5 mm apart in upper two-thirds of the left ureter to obtain reliable obstruction. Mice were sacrificed 3, 7 or 10 days after ureteral obstruction for further analyses, as described before (53, 153-155).
Paraffin-embedded specimens were deparaffinized in xylene and rehydrated in ethanol containing distilled water. Tissue sections were stained using polyclonal antibodies against ALK3 (sc-20736, Santa Cruz Biotechnology, Dallas, USA) and ARNT (3718S, Cell Signaling, Danvers, USA), peroxidase labeling was performed using Vectastain Universal Elite ABC Kit (Vector Laboratories, Burlingame, USA) according to the manufacturer's protocol. AEC Substrate-Chromogen (Dako, Glostrup, Denmark) was applied for peroxidase visualization according to the manufacturer's protocol. Nuclear counterstain was performed by using Mayer's Hematoxylin Solution (Sigma, St. Louis, USA).
as §1
For SYBR-based real-time PCR, cDNA synthesis was performed by using DNase I digestion (Invitrogen, Carlsbad, USA) and SuperScript II Reverse Transcriptase (Invitrogen, Carlsbad, USA) according to the manufacturer's protocol. 1 μL of reverse-transcribed cDNA was added to the reaction mixture containing the primer pair (200 nmol/L each) and diluted 2× Fast SYBR Green Master Mix (Applied Biosystems, Carlsbad, USA) in a final volume of 20 μL for each PCR reaction. The real-time PCR reactions were performed in a 96-well reaction plate using the StepOne Plus Real-Time System (Applied Biosystems, Carlsbad, USA) and were done in triplicates. An initiation step at 95° C. for 20 seconds was followed by 40 cycles at 95° C. for 3 to seconds and 60° C. for 30 seconds, with one cycle of dissociation at 95° C. for 15 seconds, 60° C. for 60 seconds, and 95° C. for 15 seconds. The intercalation of SYBR Green dye and its fluorescent signal is directly proportional to the amount of amplified DNA and was transformed into the cycle threshold (Ct). For normalization, the Ct values of the housekeeping genes Gapdh and Actb were subtracted from the Ct values of the gene of interest to generate the dCt values. The relative expression levels were calculated using the equation 2^−ddCt.
Tissue and cells were homogenized in NP40 lysis buffer (Life technologies, Carlsbad, USA) supplemented with protease inhibitor cocktail (Roche, Basel, Switzerland).
Background: In qPCR the cycle at which signal appears reflects the starting amount.

A further series has as its system ARNT/HIF1β homodimer. Nature of the series: ARNT/HIF1β homodimer formation upon PP1/PP2A inhibition. The note with it: for ARNT/HIF1β homodimer formation: Okadaic acid: PP1/PP2A inhibition, Tautomycin: PP1, LB-100: PP2A. An excerpt:
Based on previous reports that combined inhibition of PP1/PP2A with Okadaic acid is capable to induce ARNT/HIF1β homodimer formation and transactivation activity by directly blocking ARNT dephosphorylation (163), the inventors first confirmed enhanced […] homodimer formation upon PP1/PP2A inhibition (FIG. 57A). […] See also FIG. 58.

Another series has as its system parenchymal organs. Conditions: LB-100 2 mg/kg in combination with FK506 0.2 mg/kg s.c. or GPI-1046 10 mg/kg s.c.
[2] abbreviates: FK506 0.02-5.0 mg/kg or CsA 10 mg/kg orally per day starting one day prior to UUO.

Method for parenchymal organs: Mice were injected intraperitoneally with 2 mg/kg body weight LB-100 (LDN, Sigma, St. Louis, USA) every alternate day starting at the day of surgery, control mice received equivalent volume of vehicle buffer.

For “Yy1-VMO: in vivo-morpholinos targeting translational start site of Yy1 (SEQ ID NO: 10) (antisense TGTAGAGGGTGTCGCCCGAGGCCAT; all phosphorodiamidate morpholino (PMO); in vivo-morpholino, delivery moiety not given here, further chemistry not fully specified)”, in the series with UUO-challenged kidneys, the “tubular injury and tubulointerstitial fibrosis” value was “attenuated”; the “effect of FK506 on ALK3 expression or reno-protection” value is given as “did not further enhance”. For the same compound, in the series on FKBP12, YY1, ARNT, the “intrarenal protein levels of respective transcript” value (from here on “intrarenal protein levels”) is recorded as “effectively reduced”. Moreover, in series [1], the “intrarenal ARNT, ALK3 and nuclear pSmad1/5/8 immunostaining” value is given as “equally induced”.
As for `CN1CCN(C(=O)C2C(C(=O)O)[C@H]3CC[C@@H]2O3)CC1` (stereo partly drawn) [LB-100], in the series with ARNT/HIF1β homodimer, the ARNT/HIF1β homodimer formation entry was “enhanced”. Also, in the series on ARNT/HIF1β homodimer (by protection from degradation), the “endogenous ARNT” value is recorded as “effectively increases”. Also, the “ARNT homodimer formation (mass spectrometry)” value in the series on ARNT/HIF1β homodimer (in the presence of LB-100) is “enhancement”. Besides, the “protection by FK506/GPI-1046” value with parenchymal organs is “enhances protection”.
As to Cyclosporine A [CsA], in the series on UUO-challenged kidneys (setting [2]), the chronic tubular injury result is reported as “failed to attenuate” and the interstitial fibrosis result is given as “failed to attenuate”. The “expression of ALK3” value in series [1] (UUO-challenged murine kidneys, treatment starting one day prior) is reported as “failed to induce”.
With `CO[C@H]([C@H](O)CC(=O)[C@@H](C)[C@@H](O)CC[C@@H](C)[C@@H]1O[C@]2(CC[C@@H](C)[C@H](CC[C@H](C)C(C)=O)O2)CC[C@@H]1C)[C@H](OC(=O)C[C@@H](O)C1=C(C)C(=O)OC1=O)C(C)C` [Tautomycin], in the series with ARNT/HIF1β homodimer, the ARNT/HIF1β homodimer formation entry was “did not affect”.
As for “Fkbp12-VMO: in vivo-morpholinos targeting translational start site of Fkbp12 (SEQ ID NO: 9) (antisense AGATGGTCTCCACCTGCACTCCCAT; all phosphorodiamidate morpholino (PMO); in vivo-morpholino, delivery moiety not given here, further chemistry not fully specified)”, in the series with UUO-challenged kidneys, the “tubular injury and tubulointerstitial fibrosis” value was “attenuated”; the “effect of FK506 on ALK3 expression or reno-protection” value was “did not further enhance”. In addition, the “intrarenal protein levels” value with FKBP12, YY1, ARNT is reported as “effectively reduced”. The “intrarenal ARNT, ALK3 and nuclear pSmad1/5/8 immunostaining” value in series [1] was “equally induced”.
As for `C=C1[C@@H](O)[C@@H]2O[C@]3(CC[C@H](/C=C/[C@@H](C)[C@@H]4CC(C)=C[C@@]5(O[C@H](C[C@@](C)(O)C(=O)O)CC[C@H]5O)O4)O3)CC[C@H]2O[C@@H]1[C@@H](O)C[C@H](C)[C@H]1O[C@@]2(CCCCO2)CC[C@H]1C` [Okadaic acid], the ARNT/HIF1β homodimer formation entry with ARNT/HIF1β homodimer is recorded as “enhanced”.
With “Arnt-VMO: in vivo-morpholinos targeting translational start site of Arnt (antisense AAGAGCCACTCCGCAGATTAGGCAC; all phosphorodiamidate morpholino (PMO); in vivo-morpholino, delivery moiety not given here, further chemistry not fully specified)”, the “intrarenal protein levels” value in the series with FKBP12, YY1, ARNT is “effectively reduced”.
